Key:
[1] = Apparent volume of distribution in male Sprague-Dawley rat at 24.4 micromol/kg, IG administered as single dose and measured upto 24 hrs by LC-MS/MS analysis; assay type: ADME; details: in vivo, po, dose 24.4 µmol/kg
[2] = Apparent volume of distribution in male Sprague-Dawley rat at 6.1 micromol/kg, iv administered as single dose and measured upto 24 hrs by LC-MS/MS analysis; assay type: ADME, organism-based; details: in vivo, dose 6.1 µmol/kg, read-out: Vz
[3] = Metabolic stability in human liver microsomes assessed as intrinsic clearance at 1 uM preincubated for 10 mins followed by NADPH addition by LC-MS analysis; assay type: ADME, Microsome; details: read-out: CLH
[4] = Drug concentration in Sprague-Dawley rat brain at 24.4 micromol/kg, IG measured after 0.5 hrs by LC-MS/MS analysis; assay type: ADME, tissue-based; details: in vivo, po, dose 24.4 µmol/kg
[5] = Genotoxicity in Salmonella typhimurium TA1535 assessed as induction of reverse mutation in absence of rat liver S9 fraction; assay type: toxicity; details: salmonella enterica subsp. enterica serovar typhimurium
[6] = Bioavailability in male Sprague-Dawley rat at 24.4 micromol/kg, IG administered as single dose and measured upto 24 hrs by LC-MS/MS analysis; assay type: ADME, organism-based; details: in vivo, po, 24.4 µmol/kg
[7] = target: GABA-A receptor; alpha-1/beta-2/gamma-2 (Homo sapiens) (UniProt P14867+P47870+P18507); experiment: Positive allosteric modulation of synaptic alpha1beta2gamma2 GABA-A receptor (unknown origin) transfected in LTK cells assessed as potentiation of GABA-induced peak current amplitude by measuring maximal efficacy at 0.01 to 10 uM at -80 mV holding potential preincubated for 30 secs followed by GABA stimulation for 2 secs by Q-patch assay relative to control; assay type: cell-based; details: filed as positive allosteric modulator, dose 0.01-10 µM, time 32.0 sec
[8] = target: T1, GABA-A receptor; alpha-1/beta-2/gamma-2 (Homo sapiens, UniProt P14867+P18507+P47870); experiment: (§1) Positive allosteric modulation of synaptic alpha1beta2gamma2 GABA-A receptor (unknown origin) transfected in LTK cells assessed as potentiation of GABA-induced peak current amplitude at -80 mV holding potential preincubated for 30 secs followed by GABA stimulation for 2 secs by Q-patch assay; assay type: cell-based
T1 sequence (P14867 whole entry): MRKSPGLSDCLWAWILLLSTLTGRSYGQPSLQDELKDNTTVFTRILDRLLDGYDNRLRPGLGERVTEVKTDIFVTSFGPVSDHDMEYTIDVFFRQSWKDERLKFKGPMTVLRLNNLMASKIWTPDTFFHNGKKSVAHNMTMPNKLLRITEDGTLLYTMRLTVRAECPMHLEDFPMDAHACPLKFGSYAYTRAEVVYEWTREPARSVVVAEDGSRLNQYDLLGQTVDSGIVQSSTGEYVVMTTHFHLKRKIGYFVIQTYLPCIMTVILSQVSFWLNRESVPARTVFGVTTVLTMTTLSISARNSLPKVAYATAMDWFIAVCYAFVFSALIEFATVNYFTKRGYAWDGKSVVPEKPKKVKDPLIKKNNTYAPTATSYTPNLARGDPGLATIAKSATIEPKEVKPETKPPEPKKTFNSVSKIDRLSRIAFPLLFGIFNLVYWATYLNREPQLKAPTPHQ
T1 sequence (P47870 whole entry): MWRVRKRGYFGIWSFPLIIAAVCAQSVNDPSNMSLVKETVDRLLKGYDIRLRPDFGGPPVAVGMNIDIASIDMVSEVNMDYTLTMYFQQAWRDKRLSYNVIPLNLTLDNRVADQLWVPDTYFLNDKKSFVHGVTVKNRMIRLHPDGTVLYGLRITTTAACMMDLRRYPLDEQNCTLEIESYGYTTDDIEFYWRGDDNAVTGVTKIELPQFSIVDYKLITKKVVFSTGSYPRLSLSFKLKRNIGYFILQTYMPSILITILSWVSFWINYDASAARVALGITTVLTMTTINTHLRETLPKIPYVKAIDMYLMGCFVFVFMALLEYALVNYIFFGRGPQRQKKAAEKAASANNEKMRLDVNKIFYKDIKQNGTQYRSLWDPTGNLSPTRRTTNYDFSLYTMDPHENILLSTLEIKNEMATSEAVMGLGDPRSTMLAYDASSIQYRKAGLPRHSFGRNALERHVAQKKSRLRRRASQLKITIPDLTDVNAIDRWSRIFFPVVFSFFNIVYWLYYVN
T1 sequence (P18507 whole entry): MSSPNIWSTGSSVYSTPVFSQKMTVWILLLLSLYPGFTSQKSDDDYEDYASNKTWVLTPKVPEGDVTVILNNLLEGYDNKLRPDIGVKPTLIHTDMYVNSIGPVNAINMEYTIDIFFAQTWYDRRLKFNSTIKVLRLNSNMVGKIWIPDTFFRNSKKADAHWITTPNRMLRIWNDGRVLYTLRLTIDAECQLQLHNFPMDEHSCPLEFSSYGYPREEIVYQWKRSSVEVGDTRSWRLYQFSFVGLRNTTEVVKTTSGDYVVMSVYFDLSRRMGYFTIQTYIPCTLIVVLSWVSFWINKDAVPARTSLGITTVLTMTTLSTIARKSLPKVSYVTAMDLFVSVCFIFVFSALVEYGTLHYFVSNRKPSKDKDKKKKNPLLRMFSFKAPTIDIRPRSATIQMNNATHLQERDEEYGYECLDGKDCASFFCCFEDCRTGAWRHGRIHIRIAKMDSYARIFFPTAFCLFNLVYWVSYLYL

[9] = Tmax in male Sprague-Dawley rat at 24.4 micromol/kg, IG administered as single dose and measured upto 24 hrs by LC-MS/MS analysis; assay type: ADME; details: in vivo, po, dose 24.4 µmol/kg
[10] = Metabolic stability in human liver microsomes assessed as compound remaining at 1 uM preincubated for 10 mins followed by NADPH addition by LC-MS analysis; assay type: ADME, Microsome; details: read-out: Stability
[11] = Toxicity in male Sprague-Dawley rat assessed as risk of consciousness loss by measuring time for first loss of righting reflex at 36.6 micromol/kg, ip measured within 4 hrs; assay type: organism-based; details: in vivo, dose 36.6 µmol/kg
[12] = Drug concentration in Sprague-Dawley rat brain at 24.4 micromol/kg, IG measured after 6 hrs by LC-MS/MS analysis; assay type: ADME, tissue-based; details: in vivo, po, dose 24.4 µmol/kg
[13] = Half life in male Sprague-Dawley rat at 6.1 micromol/kg, iv administered as single dose and measured upto 24 hrs by LC-MS/MS analysis; assay type: ADME, organism-based; details: in vivo, dose 6.1 µmol/kg
[14] = Genotoxicity in Salmonella typhimurium TA97 assessed as induction of reverse mutation in absence of rat liver S9 fraction; assay type: toxicity; details: salmonella enterica subsp. enterica serovar typhimurium
[15] = AUClast in male Sprague-Dawley rat at 6.1 micromol/kg, iv administered as single dose and measured upto 24 hrs by LC-MS/MS analysis; assay type: ADME, organism-based; details: in vivo, dose 6.1 µmol/kg
[16] = target: Gamma-aminobutyric acid receptor subunit alpha-4/beta3/delta (Homo sapiens, UniProt O14764+P28472+P48169); experiment: as §1, with “extrasynaptic alpha4beta3delta” for “synaptic alpha1beta2gamma2”, “CHO” for “LTK”, “manual patch” for “Q-patch”; assay type: cell-based
[17] = AUClast in male Sprague-Dawley rat at 24.4 micromol/kg, IG administered as single dose and measured upto 24 hrs by LC-MS/MS analysis; assay type: ADME; details: in vivo, po, dose 24.4 µmol/kg
[18] = system: Rattus norvegicus; experiment: Antiseizure activity in PTZ-induced male Sprague-Dawley rat acute seizure model assessed as increase in latency to tonic seizures at 24.4 micromol/kg, po pretreated for 1 hr followed by PTZ addition and measured after 60 mins (reference value: 77 +/- 13.4 sec); assay type: functional; details: dose 24.4 µmol/kg, time 120 min, 2 h

Chain of Gamma-aminobutyric acid receptor subunit alpha-4/beta3/delta (P28472 whole entry): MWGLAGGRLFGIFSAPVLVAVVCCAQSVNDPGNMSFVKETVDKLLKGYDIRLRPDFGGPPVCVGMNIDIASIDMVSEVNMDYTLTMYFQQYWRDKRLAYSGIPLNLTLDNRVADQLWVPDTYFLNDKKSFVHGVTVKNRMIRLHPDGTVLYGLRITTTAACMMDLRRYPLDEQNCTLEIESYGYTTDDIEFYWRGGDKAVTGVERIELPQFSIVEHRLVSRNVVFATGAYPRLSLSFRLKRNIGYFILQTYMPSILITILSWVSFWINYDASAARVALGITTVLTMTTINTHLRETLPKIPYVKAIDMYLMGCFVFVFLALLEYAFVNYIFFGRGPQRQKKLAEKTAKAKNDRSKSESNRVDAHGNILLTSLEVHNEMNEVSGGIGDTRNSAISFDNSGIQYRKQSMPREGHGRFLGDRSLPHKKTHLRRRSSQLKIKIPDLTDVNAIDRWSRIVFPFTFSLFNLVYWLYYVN
Chain of Gamma-aminobutyric acid receptor subunit alpha-4/beta3/delta (P48169 whole entry): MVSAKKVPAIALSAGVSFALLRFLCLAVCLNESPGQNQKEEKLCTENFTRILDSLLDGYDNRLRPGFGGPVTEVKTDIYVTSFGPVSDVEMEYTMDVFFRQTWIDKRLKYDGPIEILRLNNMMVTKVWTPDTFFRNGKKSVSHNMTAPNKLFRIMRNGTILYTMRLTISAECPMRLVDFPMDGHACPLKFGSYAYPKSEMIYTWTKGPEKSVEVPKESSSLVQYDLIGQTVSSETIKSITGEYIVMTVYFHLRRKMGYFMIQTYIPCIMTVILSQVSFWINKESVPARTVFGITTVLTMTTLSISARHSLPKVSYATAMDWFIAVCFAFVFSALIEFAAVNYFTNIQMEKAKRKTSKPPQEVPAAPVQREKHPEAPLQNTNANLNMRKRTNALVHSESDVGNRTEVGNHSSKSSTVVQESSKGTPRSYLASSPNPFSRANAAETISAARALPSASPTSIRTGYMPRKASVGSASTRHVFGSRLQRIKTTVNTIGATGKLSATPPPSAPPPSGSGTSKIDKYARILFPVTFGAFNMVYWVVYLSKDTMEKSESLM
Chain of Gamma-aminobutyric acid receptor subunit alpha-4/beta3/delta (O14764 whole entry): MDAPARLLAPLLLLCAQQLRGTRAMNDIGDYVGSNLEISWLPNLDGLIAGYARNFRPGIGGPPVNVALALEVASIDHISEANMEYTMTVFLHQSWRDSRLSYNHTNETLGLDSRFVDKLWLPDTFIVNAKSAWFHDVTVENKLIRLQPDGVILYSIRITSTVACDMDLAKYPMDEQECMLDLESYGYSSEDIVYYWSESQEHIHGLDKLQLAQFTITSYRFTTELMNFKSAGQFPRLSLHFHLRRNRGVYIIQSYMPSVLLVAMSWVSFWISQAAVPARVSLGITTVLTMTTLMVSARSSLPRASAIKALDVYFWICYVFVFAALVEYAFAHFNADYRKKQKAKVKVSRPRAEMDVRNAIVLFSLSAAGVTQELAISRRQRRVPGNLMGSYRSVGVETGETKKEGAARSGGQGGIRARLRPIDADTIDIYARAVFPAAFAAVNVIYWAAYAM

SMILES | Vz [1] [L/kg] | Vd [2] [L/kg] | CLint scaled at 1 µM [3] [mL/min/kg] | Ct [4] [nmol/kg] | Activity [5] | bioavailability [6] [%] | Emax [7] [%] | EC50 [8] [nM] | Tmax [9] [h] | remaining at 1 µM [10] [%] | Time [11] [min] | Ct [12] [nmol/kg] | half-life [13] [h] | Activity [14] | AUC(0-t) at 24 h [15] [µM·h] | EC50 [16] [nM] | AUC(0-t) at 24 h [17] [µM·h] | Time [18] [s]
C[C@@]1(O)CC[C@H]2[C@H](CC[C@@H]3[C@@H]2CC[C@]2(C)[C@@H](C(=O)Cn4cnn(-c5cc(F)nc(F)c5)c4=O)CC[C@@H]32)C1 | 8.86 | 7.38 | < 6.75 | 2320 | Non-Toxic | 99.6 | 675 | 141 | 2.01 | 98 | 57 | 2339 | 5.2 | Non-Toxic | 6.03 | 75 | 24 | 
C[C@@]1(O)CC[C@H]2[C@H](CC[C@@H]3[C@@H]2CC[C@]2(C)[C@@H](C(=O)Cn4cc(C#N)cn4)CC[C@@H]32)C1 [ZURANOLONE] | 10.54 | 4.66 | 10.6 | 3103 |  | 57.7 | 980 | 152 | 1.17 | 72 |  | 193 | 2.45 |  | 5.21 | 135 | 12 | 2850

— ChEMBL document CHEMBL5608182, “Synthesis and evaluation of neuroactive steroids with novel pharmacophore at C-21 let identify a compound with advantageous PK profile and higher EC50 and Emax as PAM on GABAA receptor” (Eur J Med Chem, 2024)
